Experimental data reported in paper PMC6017605, “In Silico Discovery of a Substituted 6-Methoxy-quinaldine with Leishmanicidal Activity in Leishmania infantum” (Molecules, 2018).

Biological target: T1, NDH-2 from S. aureus (SaNDH2, type 2 NADH:quinone oxidoreductase) (Staphylococcus aureus, UniProt Q2FZV7)
T1 construct: gene SAOUHSC_00878; recombinant NDH-2
Assay: steady-state NADH oxidation assay at […] nm with DMN as electron acceptor, […] enzyme
Type: biochemical

T1 sequence (Q2FZV7 whole entry): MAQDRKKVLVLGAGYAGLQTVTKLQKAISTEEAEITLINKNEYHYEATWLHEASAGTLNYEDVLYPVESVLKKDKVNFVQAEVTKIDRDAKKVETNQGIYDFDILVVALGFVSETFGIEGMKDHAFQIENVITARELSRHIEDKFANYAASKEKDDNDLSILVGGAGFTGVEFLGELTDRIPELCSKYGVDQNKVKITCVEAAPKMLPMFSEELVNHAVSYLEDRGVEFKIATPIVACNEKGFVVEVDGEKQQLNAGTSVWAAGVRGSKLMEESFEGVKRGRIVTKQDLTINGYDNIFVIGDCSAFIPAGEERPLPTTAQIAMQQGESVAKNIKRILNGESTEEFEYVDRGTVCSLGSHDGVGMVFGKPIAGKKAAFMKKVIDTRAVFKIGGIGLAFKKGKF

Compound: COc1ccc2nc(C)ccc2c1 [compound 15]
- Ki: 8.9 ± 1 µM
